Experimental data: patent US11472826B2, “Acyclic antivirals” (priority 2016, dated 2022)

Columns and labels:
[1] = tested on: VSV-G pseudotyped HIV NL4-3; assay: microbe, parasite or virus in culture; assay type: cell-based; details: Human immunodeficiency virus 1, NL43, 72 h
[2] = tested on: HBV; assay: microbe, parasite or virus in culture; assay type: cell-based; details: Hepatitis B virus; HepG2.117 cells, 72 hours, HBV viral copy numbers in supernatant; read-out: EC50

CC(C)OC(=O)OCOP(=O)(CO[C@H](C)Cc1cnc2c(N)ncnn12)OCOC(=O)OC(C)C [Compound 12]
EC50 [1]: < 20 µM
EC50 [2]: < 1 µM

CC(C)OC(=O)OCOP(=O)(CO[C@H](C)Cc1cnn2c(N)ncnc12)OCOC(=O)OC(C)C [Compound 13]
EC50 [1]: < 20 µM
EC50 [2]: > 100 µM

CC(C)OC(=O)OCOP(=O)(CO[C@@H](C)Cc1cnn2c(N)ncnc12)OCOC(=O)OC(C)C [Compound 14]
EC50 [1]: < 20 µM
EC50 [2]: < 1 µM
